Reference: paper PMC9696974 (Pharmaceutics, 2022)

Columns and labels:
[1] = system: A549 cells; assay: Cell size (FSC) and complexity (SSC) by flow cytometry; format: cell-based, human; conditions: A549, 10 µM, UV irradiation
Method: To corroborate further the observed phenomena, we determined morphology changes in 2M-, 1-, and 1M-treated A549 cells after exposing them to UV light. Morphology changes were determined by flow cytometry, which allows the assessment of cell size (FSC) and complexity (SSC). […] This increase was the most pronounced in cells treated with 1 and 1M.

[2] = target: BSA (Bos taurus, UniProt P02769); assay: Fluorimetric titration with BSA, Scatchard equation; format: binding, bovine; conditions: I = 0.05 M; for Kd: pH 7, sodium cacodylate buffer, read-out: Binding constant logKs BSA (converted)
Chain of BSA (P02769 25-607): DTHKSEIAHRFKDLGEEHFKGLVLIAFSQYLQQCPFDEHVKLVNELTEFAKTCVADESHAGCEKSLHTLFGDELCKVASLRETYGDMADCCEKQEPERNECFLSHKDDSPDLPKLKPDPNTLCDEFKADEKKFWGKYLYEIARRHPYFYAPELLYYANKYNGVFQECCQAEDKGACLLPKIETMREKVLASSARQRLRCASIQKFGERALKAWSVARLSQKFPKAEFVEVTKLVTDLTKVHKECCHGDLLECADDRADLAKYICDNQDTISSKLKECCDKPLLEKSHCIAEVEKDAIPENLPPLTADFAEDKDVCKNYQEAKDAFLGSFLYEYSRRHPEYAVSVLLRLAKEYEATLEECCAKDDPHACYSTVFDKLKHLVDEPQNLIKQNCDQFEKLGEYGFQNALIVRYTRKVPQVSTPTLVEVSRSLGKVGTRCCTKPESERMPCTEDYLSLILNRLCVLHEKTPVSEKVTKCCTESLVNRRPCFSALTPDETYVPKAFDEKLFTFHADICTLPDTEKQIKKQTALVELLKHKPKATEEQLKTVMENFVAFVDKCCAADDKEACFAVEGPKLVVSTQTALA
Method: (§1) Experiments were conducted in an aqueous buffer solution (pH = 7.0 or pH= 5.0, I = 0.05 M, sodium cacodylate buffer). For the UV-Vis spectra were used Varian Cary 100 Bio spectrometer, for fluorescence spectra we used the Varian Cary Eclipse fluorimeter and for CD spectra we used the JASCO J815 spectropolarimeter, all conducted at 25.0 °C using appropriate quartz cuvettes (path length: 1 cm).
As the pharmacokinetic properties of small molecules often depend on a binding affinity toward transport proteins (such as serum albumin), we performed fluorimetric titrations with BSA. The emission of both 1M and 2M (Supplementary Information, Figures S15 and S16), was strongly quenched, with compound 2M showing a lower affinity in comparison to ds-DNA/RNA, while the affinity of 1M was similar to that towards ds-DNA/RNA (Table 2).
(§2) Processing of fluorimetric titrations by means of the Scatchard equation [56, 57] yielded binding constants (Table 2). […] Affinities of 1 and 2 toward BSA were the same at both pH values, supporting the conclusion that neutral forms of 1 and 2 were bound.

[3] = system: pUC19 plasmid DNA; assay: Plasmid electrophoresis, photoinduced DNA nuclease activity; format: biochemical; conditions: 100 μM compound; for Photo-induced nuclease activity on plasmid DNA: 1 μg pUC19, UV light 15 and 45 s; for Effect on plasmid DNA forms without UV irradiation: 1 μg pUC19, non-irradiated
Method: Plasmid electrophoresis. For assessing the photoinduced DNA nuclease activity of compounds 2M, 1 and 1M, 1 μg of pUC19 plasmid DNA (2686 pb) was incubated with a 100 μM solution of the respective compound, and exposed to UV light (using a xenon arc lamp, Oriel, Stratford, CT, USA) for 15 and 45 s. After the treatment plasmid samples were run on 0.5% agarose gel, and stained with Midori Green DNA binding dye (Nippon Genetics, Düren, Germany). Non-irradiated samples containing compounds and plasmid DNA served as a control for assessing the photoinduced nuclease activity of the compound. Plasmid without the compound was irradiated with UV light under the same conditions to determine whether UV light itself induces changes in plasmid DNA forms (linear and supercoiled form). After gel electrophoresis, plasmid DNA forms were visualised on a UVITEC Imager (Cleaver Scientific, Rugby, UK).

[4] = system: A549 cells; assay: MTT cell viability assay, A549, with or without UV light; format: cell-based, human; conditions: for Ratio of IC50 non-irradiated vs UV-irradiated: A549; for Cytotoxic effect: A549, 10 μM and 1 μM, without UV; for Cytotoxic effect / IC50: MTT; for IC50: Homo sapiens, light or radiation study, 72 h
Method: Cells. Commercially available from American Type Culture Collection (ATCC), human epithelial lung adenocarcinoma A549 (ATCC® CCL-185™) and human normal lung fibroblast WI-38 (ATCC® CCL-75™) were grown according to supplier’s conditions, namely in Dulbecco Modified Eagle’s Medium (DMEM, Sigma Aldrich, St. Louis, MO, USA) supplemented with 10% of fetal bovine serum (FBS, Sigma Aldrich, USA). Cells were incubated in the cell incubator (Thermo Fischer Scientific, Waltham, MA, USA) at 37 °C and 5% CO2 in a humidified atmosphere.
Cell viability assay. In order to obtain a 10 mM stock solution chemical compounds (2M, 1, and 1M) were sterilely diluted in an appropriate volume of dimethyl sulfoxide solution (DMSO, Gram-Mol, Zagreb, Croatia). Solutions were kept in the dark and stored at 4 °C. The cytotoxic effects of each compound were assayed on A549 and WI-38 cells. […] Briefly, cells were seeded in 96-well tissue culture plates and 24 h later treated with 2M, 1, or 1M in the concentration range of 10–0.1 μM. Cells treated with the same dilutions of DMSO represented the control, while cells treated only with DMEM (10% FBS) represented the negative control. After 72 h, the media was removed, MTT solution was added into each well, and the plate was incubated (37 °C, 5% CO2) for 3 h. The resulting MTT-formazan products were dissolved using DMSO, and their absorbance at 600 nm was measured using a microplate reader.
For determining the effect of UV exposure, cells were seeded on two plates and treated with working solutions of the respective compounds as previously described. Plates were incubated (37 °C, 5% CO2) for 90 min, allowing the compounds to enter the cells. Then, one plate was exposed to UV light (Luzchem reactor, 350 nm, 8 lamps, in total 8 W, dose 50.6 mWm^−2; ~18 cm lamp to cell-plate) for 5 min, 3 days in a row at the same time each day, while the other plate was left in the cell incubator in the dark and served as a control.

[5] = system: ct-DNA; assay: Fluorimetric titration with ct-DNA, Scatchard equation; format: binding, calf; parameters: key: The changes were too small to allow an accurate calculation of the binding constant; conditions: I = 0.05 M
Method: as §1
Polynucleotides were purchased as noted: poly dAdT-poly dAdT, poly dGdC-poly dGdC, poly A-poly U (ds-RNA), (Sigma-Aldrich, Schnelldorf, Germany), calf thymus (ct)-DNA (Sigma-Aldrich, Schnelldorf, Germany) and dissolved in sodium cacodylate buffer, I = 0.05 M, pH = 7.0. The ct-DNA was sonicated and filtered through a 0.45 µm filter to obtain mostly short (ca. 100 base pairs) rod-like B-helical DNA fragments. The concentration of DNA or RNA was determined spectroscopically as the c(nucleobase) using producer-provided molar extinction coefficients.
Fortunately, strong emission from the compounds studied allowed fluorimetric titrations to be performed at much lower concentrations of the dyes (c = 5 × 10^−8 M), thus preventing precipitation of non-methylated 1 or 2, and allowing for the collection of numerous data points at excess of DNA/RNA binding sites over c(dye). […] Intriguingly, mixed sequence ct-DNA caused emission quenching of 1M at an excess of dye over ct-DNA (r > 0.1), and such quenching could be attributed to aggregation of 1M along DNA, while at an excess of ct-DNA over dye (r << 0.1), emission increased. The emission of 2M was indiscriminately quenched by all ds-DNA/RNA (Figure 2d).
as §2

[6] = A549, UV-irradiated (350 nm, 5 min, 3 days in a row)

SMILES | Cell size (FSC) [1] | Kd [2] | Photo-induced nuclease activity on plasmid DNA [3] | Effect on plasmid DNA forms without UV irradiation [3] | Ratio of IC50 non-irradiated vs UV-irradiated [4] | Cytotoxic effect [4] | IC50 [4, 6] | IC50 ([4]; A549, non-irradiated) | Binding constant logKs ct-DNA ([5]; pH 7, sodium cacodylate buffer) | Binding constant logKs BSA ([2]; pH 5, sodium cacodylate buffer) | Binding constant logKs ct-DNA ([5]; pH 5, sodium cacodylate buffer)
C[n+]1ccc(-c2cc3ccc4cccc5ccc(c2)c3c45)cc1 [1M, 2-para-N-methylpyridinium pyrene] | increase in cell size | 3.98 µM | strong photo-induced nuclease activity | nicking of the plasmid DNA | 15 | considerable cytotoxic effects | 0.1 µM | 1.5 µM | 5.5 |  | 
C[n+]1ccc(-c2cc3ccc4cc(-c5cc[n+](C)cc5)cc5ccc(c2)c3c45)cc1 [2M] | increase in cell size | 0.126 µM | strong photo-induced nuclease activity | unwinding of supercoiled DNA even without UV irradiation | four times | considerable cytotoxic effects | 2 µM | 8 µM | 8.8 |  | 
c1cc2ccc3cc(-c4ccncc4)cc4ccc(c1)c2c34 [compound 1] | increase in cell size | 3.16 µM | did not show any influence on DNA plasmid forms |  | four times | considerable cytotoxic effects | 2 µM | 8 µM | b | 5.5 | 5.3
